For 10 molecules, IC50 results are on record in US20230027361A1, “METTL3 MODULATORS” (priority 2019, published 2023).

pIC50: −log10 of the molar value. Like-named read-outs stand apart in the source and are kept apart here. Bounds are passed on as bounds.

One experiment deals with T1, METTL16 (Homo sapiens, UniProt Q86W50).
T1 sequence (Q86W50 1-562): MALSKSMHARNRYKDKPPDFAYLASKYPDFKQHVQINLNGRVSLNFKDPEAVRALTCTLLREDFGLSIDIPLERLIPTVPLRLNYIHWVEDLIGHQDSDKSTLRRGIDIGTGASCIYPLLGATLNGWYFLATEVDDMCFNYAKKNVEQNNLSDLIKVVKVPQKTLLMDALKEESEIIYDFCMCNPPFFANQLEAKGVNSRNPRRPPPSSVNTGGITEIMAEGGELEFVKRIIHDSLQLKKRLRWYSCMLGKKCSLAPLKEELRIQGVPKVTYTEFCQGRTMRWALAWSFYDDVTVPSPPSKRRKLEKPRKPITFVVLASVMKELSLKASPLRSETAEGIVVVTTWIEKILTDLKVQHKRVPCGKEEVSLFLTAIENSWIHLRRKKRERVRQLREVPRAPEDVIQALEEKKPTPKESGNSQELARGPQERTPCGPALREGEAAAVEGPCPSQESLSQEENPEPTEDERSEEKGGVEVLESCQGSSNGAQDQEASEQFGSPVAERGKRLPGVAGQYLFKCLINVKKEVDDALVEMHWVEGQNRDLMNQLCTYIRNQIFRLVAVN
The experiment is described as follows: METTL16 Assay (METTL16 biochemical assay). To be noted: read-out: METTL16 IC50. In a few lines:
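Radiometric methyltransferase reaction at ambient temperature in 20 mM HEPES pH 7.5, 50 mM KCl, 1 mM DTT, with 100 nM enzyme preincubated 5 min with compound. It was started with 50 nM 3′-biotinylated RNA, 200 nM 3H-SAM plus 800 nM cold SAM, run 20 min, then quenched with excess cold SAM. Product was captured on streptavidin flashplates and scintillation-counted.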

Experiment [1] deals with m6A in cellular mRNA of MOLM-13 cells. Description: m6A-mRNA LC-MS/MS Assay (m6A cellular assay). The class given is cell-based. To be noted: Homo sapiens, MOLM-13, read-out: m^6A IC50. In a few lines:
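Cells harvested, mRNA extracted and digested to single nucleosides, then analysed by LC-MS/MS. Nucleosides quantified against a standard curve from pure nucleoside standards run in the same batch. m6A level expressed as 100*(m6A/A).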

The target in another experiment is PRMT5-MEP50 (Homo sapiens, UniProt O14744). The experiment is described as follows: PRMT5 Assay (PRMT5 biochemical assay). An outline of the steps: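 Radiometric methyltransferase read-out: after 60 min reaction, excess unlabelled SAM (15 μM) stops turnover and biotinylated H4 peptide (100 nM) carrying 3H-methyl from 250 nM 3H-SAM is captured on streptavidin flashplates (2 h, 25° C) for scintillation counting. Enzyme, 2.5 nM PRMT5-MEP50, was preincubated 5 min with compound in pH 8.0 Tris buffer with DTT and Tween.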

The next experiment concerns the target METTL1/WDR4 (Homo sapiens, UniProt Q9UBP6). Description: METTL1 Assay (METTL1 biochemical assay). In a few lines:
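Radiometric methyltransfer by METTL1/WDR4 (6.25 nM f.c., 5 min preincubation) at ambient temperature in HEPES pH 7.5, KCl, MgCl2, DTT; started with 25 nM 3′-biotinylated RNA and 60 nM 3H-SAM, run 20 min, quenched with 15 μM cold SAM. Product captured on streptavidin flashplates (2 h, 25° C), counted by scintillation.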

Where [2] appears, read: read-out: PRMT5 IC50; PRMT5 biochemical assay.
Where [3] appears, read: PRMT5 biochemical assay; read-out: PRMT5 IC50.
Setting [4] is: read-out: METTL1 IC50, METTL1 biochemical assay.

Chain of METTL1/WDR4 (Q9UBP6 whole entry, species assumed): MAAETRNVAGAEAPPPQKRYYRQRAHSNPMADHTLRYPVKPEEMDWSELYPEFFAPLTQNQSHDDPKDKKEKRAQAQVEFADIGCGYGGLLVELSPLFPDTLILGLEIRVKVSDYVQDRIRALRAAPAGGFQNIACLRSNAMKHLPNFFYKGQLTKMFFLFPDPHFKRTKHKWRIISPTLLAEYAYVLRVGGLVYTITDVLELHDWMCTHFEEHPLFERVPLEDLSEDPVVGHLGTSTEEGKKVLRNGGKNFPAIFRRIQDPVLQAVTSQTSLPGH
Chain of METTL1/WDR4 (P57081 whole entry partner, species assumed): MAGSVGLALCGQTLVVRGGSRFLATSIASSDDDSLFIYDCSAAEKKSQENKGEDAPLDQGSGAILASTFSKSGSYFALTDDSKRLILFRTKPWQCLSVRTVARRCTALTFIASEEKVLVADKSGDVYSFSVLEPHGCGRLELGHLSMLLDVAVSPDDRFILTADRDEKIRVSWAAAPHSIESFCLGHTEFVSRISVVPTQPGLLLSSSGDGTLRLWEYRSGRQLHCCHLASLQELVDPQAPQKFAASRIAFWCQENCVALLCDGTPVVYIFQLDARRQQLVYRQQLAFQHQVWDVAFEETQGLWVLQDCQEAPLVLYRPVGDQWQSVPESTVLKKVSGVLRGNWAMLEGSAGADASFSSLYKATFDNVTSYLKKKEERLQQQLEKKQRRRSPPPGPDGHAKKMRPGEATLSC
Chain of PRMT5-MEP50 (O14744 whole entry): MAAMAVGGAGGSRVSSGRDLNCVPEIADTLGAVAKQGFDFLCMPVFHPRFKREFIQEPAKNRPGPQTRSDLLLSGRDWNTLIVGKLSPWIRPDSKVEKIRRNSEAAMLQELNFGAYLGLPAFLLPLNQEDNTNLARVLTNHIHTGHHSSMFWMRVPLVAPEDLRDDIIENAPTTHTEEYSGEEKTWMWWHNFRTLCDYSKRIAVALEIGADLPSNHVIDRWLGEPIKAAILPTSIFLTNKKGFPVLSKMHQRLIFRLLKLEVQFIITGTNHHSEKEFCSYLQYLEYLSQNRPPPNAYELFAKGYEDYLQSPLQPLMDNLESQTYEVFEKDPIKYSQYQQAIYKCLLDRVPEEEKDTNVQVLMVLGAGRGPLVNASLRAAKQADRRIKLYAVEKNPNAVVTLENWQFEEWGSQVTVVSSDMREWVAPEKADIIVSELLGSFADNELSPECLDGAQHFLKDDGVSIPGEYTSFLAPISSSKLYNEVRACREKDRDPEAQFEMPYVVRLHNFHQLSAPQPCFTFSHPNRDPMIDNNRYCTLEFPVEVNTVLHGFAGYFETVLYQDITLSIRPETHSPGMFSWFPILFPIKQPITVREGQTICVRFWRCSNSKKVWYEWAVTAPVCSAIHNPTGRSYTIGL
Chain of PRMT5-MEP50 (Q9BQA1 whole entry partner): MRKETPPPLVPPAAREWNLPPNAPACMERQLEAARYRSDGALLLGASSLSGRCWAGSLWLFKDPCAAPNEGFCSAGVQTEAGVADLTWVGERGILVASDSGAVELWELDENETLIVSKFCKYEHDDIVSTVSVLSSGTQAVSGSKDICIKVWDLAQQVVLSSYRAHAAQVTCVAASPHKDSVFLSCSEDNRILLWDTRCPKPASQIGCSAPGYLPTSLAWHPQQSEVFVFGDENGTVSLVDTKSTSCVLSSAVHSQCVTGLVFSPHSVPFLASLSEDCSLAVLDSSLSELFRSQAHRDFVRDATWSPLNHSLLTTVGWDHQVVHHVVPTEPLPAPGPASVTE

`CCNc1ccc2ccc(OC[C@H]3O[C@@H](n4cc(-c5cn(C)cn5)c5c(N)ncnc54)[C@@H](F)[C@@H]3O)cc2n1` [I-10]: the figures for the pIC50 (at METTL16; in experiment [1]; on PRMT5-MEP50 (setting [2])) were below 6.00, 5.00 to 6.00 and 6.00 to 7.00, respectively.

In the case of `CNc1ccc2ccc(OC[C@H]3O[C@@H](n4cc(-c5ccn(C)n5)c5c(N)ncnc54)[C@@H](F)[C@@H]3O)cc2n1` [I-12], the results for the pIC50 (on METTL16; in experiment [1]; on PRMT5-MEP50 (setting [2])) were below 6.00, above 6.00 and 7.00 to 8.00, respectively.

As to `CNc1ccc2ccc(OC[C@H]3O[C@@H](n4cc(CC5CCCC5)c5c(N)ncnc54)[C@H](O)[C@@H]3O)cc2n1` [I-23], the pIC50 was below 6.00 at METTL16, 5.00 to 6.00 in experiment [1], 7.00 to 8.00 on PRMT5-MEP50 (setting [3]) and below 6.00 on METTL1/WDR4 (setting [4]).

On to `CNc1ccc2ccc(OC[C@H]3O[C@@H](n4cc(C5CC5)c5c(N)ncnc54)[C@@H](F)[C@@H]3O)cc2n1` [I-29], for which the pIC50 at METTL16 is below 6.00; in experiment [1] it was 5.00 to 6.00; at PRMT5-MEP50 (setting [3]), 6.00 to 7.00; on METTL1/WDR4 (setting [4]) it was below 6.00.

Consider `CNc1ccc2ccc(OC[C@H]3O[C@@H](n4cc(C5CCCC5)c5c(N)ncnc54)[C@H](O)[C@@H]3O)cc2n1` [I-33, (2R,3R,4S,5R)-2-(4-amino-5-cyclopentyl-7H-pyrrolo[2,3-d]pyrimidin-7-yl)-5-(((2-(methylamino)quinolin-7-yl)oxy)methyl)tetrahydrofuran-3,4-diol], for which the pIC50 on METTL16 is below 6.00; in experiment [1], above 6.00; at PRMT5-MEP50 (setting [3]), above 8.00; against METTL1/WDR4 it was below 6.00.

Regarding `CNc1ccc2ccc(OC[C@H]3O[C@@H](n4cc(CC5CC5)c5c(N)ncnc54)[C@@H](F)[C@@H]3O)cc2n1` [I-36], the pIC50 on METTL16 was below 6.00; in experiment [1], 5.00 to 6.00; on PRMT5-MEP50 (setting [3]), 6.00 to 7.00; at METTL1/WDR4 (setting [4]), below 6.00.

Turning to `CNc1ccc2ccc(CC[C@H]3O[C@@H](n4cc(C5CCCC5)c5c(N)ncnc54)[C@H](O)[C@@H]3O)cc2n1` [I-39], the pIC50 was below 6.00 on METTL16, 5.00 to 6.00 in experiment [1], above 8.00 on PRMT5-MEP50 (setting [3]) and below 6.00 at METTL1/WDR4 (setting [4]).

As for `CNc1ccc2ccc(OC[C@H]3O[C@@H](n4cc(Cl)c5c(N)ncnc54)[C@H](O)[C@@H]3O)cc2n1` [I-70], the pIC50 at METTL16 is below 6.00; in experiment [1], 5.00 to 6.00; on PRMT5-MEP50 (setting [3]) it was above 8.00; on METTL1/WDR4 (setting [4]), below 6.00.

For the molecule `CNc1ccc2ccc(OC[C@H]3O[C@@H](n4cc(Br)c5c(N)ncnc54)[C@H](O)[C@@H]3O)cc2n1` [I-73], the pIC50 on METTL16 is below 6.00; in experiment [1], 5.00 to 6.00; at PRMT5-MEP50 (setting [3]), above 8.00; on METTL1/WDR4 (setting [4]), below 6.00.

Consider `Cn1ccc(-c2cn([C@@H]3O[C@H](COc4ccc5ccc(N6CCC6)nc5c4)[C@@H](O)[C@@H]3F)c3ncnc(N)c23)n1` [I-149], for which the pIC50 at METTL16 was below 6.00; in experiment [1] it was above 6.00; at PRMT5-MEP50 (setting [2]), below 6.00; on METTL1/WDR4 (METTL1 biochemical assay, read-out: METTL1 IC50), below 6.00.

A word on the pIC50: it is the IC50 on a negative log10 scale, so that one unit is a factor of ten.
